Columns and labels:
Type in all cases: in vitro ADME
[1] = tested on: waxy cuticles of whole wheat leaves; test: Franz cell leaf penetration of epoxiconazole (Example 7); conditions: 24 h, 50 ppm
Protocol: (§1) This ratio may be expressed based on:
Several donor solutions were prepared to assess penetration of an azole fungicide, namely epoxiconazole, across waxy cuticles of whole wheat leaves. Epoxiconazole TGAI was provided in each donor solution at a rate of 50 ppm. Epoxiconazole is available from MilliporeSigma, St. Louis, MO, USA, and Shanghai Terppon Chemical Co., Ltd., Shanghai, China as a technical grade active ingredient. Certain donor solutions comprised 500 ppm 3-Nonenoic acid.
(§2) The permeation period was 24 hours. […] The powderized leaf was mixed with acetone as a solvent.

[2] = tested on: waxy cuticles of whole wheat leaves; test: Franz cell leaf penetration of 3-Nonenoic acid (Example 5); conditions: penetration ratio of 3-Nonenoic acid (500 ppm), epoxiconazole TGAI 50 ppm and adjuvant 1,000 ppm where included, 24 hours
Protocol: as §1
(§3) Several donor solutions were prepared to assess penetration of 3-Nonenoic acid across waxy cuticles of whole wheat leaves. Each donor solution comprised 500 ppm 3-Nonenoic acid. Certain donor solutions included an azole fungicide, namely epoxiconazole technical grade active ingredient (TGAI) fungicide, each at a rate of 50 ppm. Epoxiconazole is commercially available from MilliporeSigma, St. Louis, MO, USA, as a technical grade active ingredient. […] In this example, the adjuvants tested were non-ionic surfactants comprising C11 linear alcohol ethoxylates (available from Stepan Company of Northfield, IL as Biosoft® N1-5, Biosoft® N1-7, and Biosoft® N1-9).
as §2

[3] = tested on: waxy cuticles of whole wheat leaves; test: Franz cell leaf penetration of 3-Octenoic acid (Example 3); conditions: penetration ratio of 3-Octenoic acid (500 ppm), epoxiconazole TGAI 50 ppm and adjuvant 1,000 ppm where included, 24 hours
Protocol: as §1
as §3, with “3-Octenoic” for “3-Nonenoic”, “N1-5” for “N1-5, Biosoft® N1-7,”, “Biosoft®) N1-7).” for “Biosoft® N1-9).”
as §2

[4] = tested on: waxy cuticles of whole wheat leaves; test: Franz cell leaf penetration of 5-Hexenoic acid (Example 4); conditions: penetration ratio of 5-Hexenoic acid (1,000 ppm), pyraclostrobin 236 ppm (Headline EC) and adjuvant 1,000 ppm where included, 24 hours
Protocol: as §1
Several donor solutions were prepared to assess penetration of 5-Hexenoic acid across waxy cuticles of whole wheat leaves. Each donor solution comprised 1,000 ppm 5-Hexenoic acid (except where otherwise noted). Certain donor solutions included a strobilurin fungicide, namely pyraclostrobin. Such donor solutions comprised Headline® EC, a commercially available fungicide from BASF Corporation comprising pyraclostrobin. Such donor solutions comprised 236 ppm pyraclostrobin. […] In this example, the adjuvants tested were non-ionic surfactants comprising C11 linear alcohol ethoxylates (available from Stepan Company of Northfield, IL as Biosoft® N1-5, Biosoft® N1-7, and Biosoft® N1-9).
as §2

[5] = tested on: waxy cuticles of whole soybean leaves; test: Franz cell leaf penetration of azoxystrobin, Mero (Example 14); conditions: penetration ratio of azoxystrobin (343.5 ppm, Quadris), trans-2-Hexenoic acid 1,500 ppm and Mero 31.3 ppm where included, 24 hours
Protocol: as §1
Several donor solutions were prepared to assess penetration of a strobilurin fungicide, namely azoxystrobin, across waxy cuticles of whole soybean leaves. Each donor solution comprised Quadris®, a commercially available fungicide from Syngenta Crop Protection comprising azoxystrobin. Such donor solutions comprised 343.5 ppm azoxystrobin. Certain donor solutions included 1,500 ppm trans-2-Hexenoic acid.
(§4) The permeation period was 24 hours.

[6] = tested on: waxy cuticles of whole wheat leaves; test: Franz cell leaf penetration of pyraclostrobin, Headline SC (Example 8); conditions: penetration ratio of pyraclostrobin (236 ppm, Headline SC), 5-Hexenoic acid 1,000 ppm and adjuvant 1,000 ppm where included, 24 hours
Protocol: as §1
(§5) Several donor solutions were prepared to assess penetration of a strobilurin fungicide active ingredient, namely pyraclostrobin, across waxy cuticles of whole wheat leaves. Each donor solution comprised Headline® SC, a commercially available fungicide from BASF Corporation comprising pyraclostrobin. Such donor solutions comprised 236 ppm pyraclostrobin. Certain donor solutions included an aliphatic acid, namely 5-Hexenoic acid. Such donor solutions comprised 1,000 ppm 5-Hexenoic acid. […] In this example, the adjuvants tested were non-ionic surfactants comprising C11 linear alcohol ethoxylates (available from Stepan Company of Northfield, IL as Biosoft® N1-5, Biosoft® N1-7, and Biosoft® N1-9).
as §2

[7] = tested on: waxy cuticles of whole wheat leaves; test: Franz cell leaf penetration of pyraclostrobin, Headline EC (Example 6); conditions: penetration ratio of pyraclostrobin (236 ppm, Headline EC), 5-Hexenoic acid 1,000 ppm and adjuvant 1,000 ppm where included, 24 hours
Protocol: as §1
as §5, with “comprised Headline® EC, a commercially” for “comprised Headline® SC, a commercially”, “ppm pyraclostrobin. Pyraclostrobin is also commercially available in end-user product form from BASF Corporation as Headline® SC fungicide. Certain donor” for “ppm pyraclostrobin. Certain donor”, “solutions included 1,000 ppm” for “solutions included an aliphatic acid, namely 5-Hexenoic acid. Such donor solutions comprised 1,000 ppm”
as §2

[8] = tested on: waxy cuticles of whole soybean leaves; test: Franz cell leaf penetration of trans-2-Hexenoic acid, Biosoft adjuvants (Example 2); conditions: penetration ratio of trans-2-Hexenoic acid (1,500 ppm), azoxystrobin 343.5 ppm (Quadris) and adjuvant 1,000 ppm where included, 24 hours
Description: as §1
Each donor solution comprised 1,500 ppm trans-2-Hexenoic acid. Certain donor solutions included a strobilurin fungicide, namely azoxystrobin. Such donor solutions comprised Quadris®, a commercially available fungicide from Syngenta Crop Protection comprising azoxystrobin. Such donor solutions comprised 343.5 ppm azoxystrobin. […] In this example, the adjuvants tested were non-ionic surfactants comprising C11 linear alcohol ethoxylates (available from Stepan Company of Northfield, IL as Biosoft® N1-5, Biosoft® N1-7, and Biosoft® N1-9).
as §4

[9] = tested on: waxy cuticles of whole soybean leaves; test: Franz cell leaf penetration of trans-2-Hexenoic acid, Mero (Example 15); conditions: penetration ratio of trans-2-Hexenoic acid (1,500 ppm), azoxystrobin 343.5 ppm (Quadris) and Mero 31.3 ppm where included, 24 hours
Protocol: as §1
Each donor solution comprised 1,500 ppm trans-2-Hexenoic acid. Certain donor solutions included a strobilurin fungicide, namely azoxystrobin. Such donor solutions comprised Quadris®, a commercially available fungicide from Syngenta Crop Protection comprising azoxystrobin. Such donor solutions comprised 343.5 ppm azoxystrobin.
as §4

SMILES: Fc1ccc([C@]2(Cn3cncn3)O[C@H]2c2ccccc2Cl)cc1 (racemic) [Epoxiconazole, epoxiconazole]
- Pesticidal Active Ingredient Penetration [1]: 18.2%

SMILES: CCCCCC=CCC(=O)O [3-Nonenoic acid]
- Aliphatic Acid Penetration [2]: 17.6%

SMILES: CCCCC=CCC(=O)O [3-octenoic acid, 3-Octenoic acid]
- Aliphatic Acid Penetration [3]: 13.4%

SMILES: C=CCCCC(=O)O [5-Hexenoic acid]
- Aliphatic Acid Penetration [4]: 6.8%

SMILES: CO/C=C(/C(=O)OC)c1ccccc1Oc1cc(Oc2ccccc2C#N)ncn1 [Azoxystrobin, azoxystrobin]
- Pesticidal Active Ingredient Penetration [5]: 0.7%

SMILES: COC(=O)N(OC)c1ccccc1COc1ccn(-c2ccc(Cl)cc2)n1 [Pyraclostrobin, pyraclostrobin]
- Pesticidal Active Ingredient Penetration [6]: 7.1%
- Pesticidal Active Ingredient Penetration [7]: 7.5%

SMILES: CCC/C=C/C(=O)O [trans-2-hexenoic acid, trans-2-Hexenoic acid]
- Aliphatic Acid Penetration [8]: 13.2%
- Aliphatic Acid Penetration [9]: 13.2%
